These results are taken from patent EP0094632A1, “(-)-15-Deoxyspergualin, a process for the preparation of the same, and a pharmaceutical composition containing the same” (priority 1982, dated 1983).

Series [1] has as its system Bacillus subtilis PCI-219. Kind of series: Antibacterial activity relative to (-)-spergualin. The class given is cell-based. The note with it: relative to (-)-spergualin (3HCl·½H2O). From the text:
The compound was colorless and syrupy, and its melting point could not be measured clearly. […] The antibacterial activity against Bacillus subtilis PCI-219' was 134 % of that of (-)-spergualin (3HCl·½H2O).

Series [2] concerns Mouse Leukemia L1210 cells. Kind of series: Treatment of mouse Leukemia L1210 (survival of intraperitoneally inoculated mice). The class given is in vivo. The following applies: for No. of mice that survived 60 days: groups of 8 mice; for T/C %: observed 60 days. The protocol:
[…] Mouse Leukemia L1210 cells were inoculated intraperitoneally to groups of 8 mice each. The test compound dissolved in physiological saline solution was intraperitoneally administered once daily for 9 consecutive days, starting on the day inoculation. The animals were raised and observed for 60 days to determine survival rates (%). The survival rates were calculated from the following equation:
T [average period (in days) of survival for the treatment group] X 100
C [average period (in days) for survival for the non-treatment group]
The average survival period for the control (non-treatment group was 7.6 go 8.9 days.
The test results are shown in Table 1 along with those on (-)-spergualin.
Table 1:Efficacy of (-)-15-deoxyspergualin in the treatment of mose Leukemia L1210

Series [3] in a line: Carcinostatic action compared with synthetic 15-deoxyspergualin. The following applies: compared with 15-deoxyspergualin synthesized previously by condensation.
A short description of the next series: Chemical stability. The class given is physicochemical.
Where [4] appears, read: 0.05 mg/kg/day i.p. once daily for 9 days.
Where [5] appears, read: 0.10 mg/kg/day i.p. once daily for 9 days.
The mark [6] stands for this setting: 0.20 mg/kg/day i.p. once daily for 9 days.
Setting [7] is: 0.39 mg/kg/day i.p. once daily for 9 days.
Where [8] appears, read: 0.78 mg/kg/day i.p. once daily for 9 days.
[9] abbreviates: 1.56 mg/kg/day i.p. once daily for 9 days.
Where [10] appears, read: 3.13 mg/kg/day i.p. once daily for 9 days.
Where [11] appears, read: 6.25 mg/kg/day i.p. once daily for 9 days.
Setting [12] is: 12.5 mg/kg/day i.p. once daily for 9 days.
The mark [13] stands for this setting: 25 mg/kg/day i.p. once daily for 9 days.
Where [14] appears, read: 50 mg/kg/day i.p. once daily for 9 days.

SMILES strings stand for the structures.

Turning to `N=C(N)NCCCCCCC(=O)NC(O)C(=O)NCCCCNCCCN` (single isomer, unassigned; (-)) [(-)-15-Deoxyspergualin, (-)-15-deoxyspergualin], the “antibacterial activity against Bacillus subtilis PCI-219, % of that of (-)-spergualin” value in series [1] was determined as 134%. The “No. of mice that survived 60 days” value is 0/8 in series [2] (setting [4]); 0/8 in series [2] (setting [5]); 6/8 in series [2] (setting [6]); 6/8 in series [2] (setting [7]); 8/8 in series [2] (setting [8]); 2/8 in series [2] (setting [9]). Also, the “No. of mice that survived 60 days” value in series [2] (setting [10]) is 2/8; in series [2] (setting [11]), 0/8. Moreover, the T/C % in series [2] (setting [4]) was 129%; in series [2] (setting [5]), 138%; in series [2] (setting [6]), over 664%; in series [2] (setting [7]), over 629%; in series [2] (setting [8]), over 789%; in series [2] (setting [9]) it was over 493%. Moreover, the T/C % in series [2] (setting [10]) is on record as over 526%; in series [2] (setting [11]) it was 408%. Also, in series [3], the carcinostatic action result is “markedly better carcinostatic action”. Further, the “stability to alkalis and acids” value in the series “Chemical stability” (alkalis and acids) is “very unstable”. In addition, the “stability in the form of a free base” value in the series “Chemical stability” (free base) is given as “unstable”.
For `N=C(N)NCCCC[C@H](O)CC(=O)NC(O)C(=O)NCCCCNCCCN` (single isomer, unassigned; (-)) [(-)-Spergualin, (-)-spergualin, reference compound], the “No. of mice that survived 60 days” value in series [2] (setting [8]) is on record as 0/8; in series [2] (setting [9]), 1/8; in series [2] (setting [10]), 3/8; in series [2] (setting [11]), 8/8; in series [2] (setting [12]), 4/8; in series [2] (setting [13]) it was 0/8. Moreover, the “No. of mice that survived 60 days” value in series [2] (setting [14]) is reported as 0/8. Further, the T/C % in series [2] (setting [8]) is 107%; in series [2] (setting [9]), over 301%; in series [2] (setting [10]), over 441%; in series [2] (setting [11]) it was over 732%; in series [2] (setting [12]), over 586%; in series [2] (setting [13]), 334%. In series [2] (setting [14]), this compound gave a T/C % of 295%.
